Tests used:
protein kinase C (PKC) = details: cited from earlier work
CaM kinase [1] = biological target: T1, CaM kinase (Oryctolagus cuniculus, UniProt O77708); experiment: Ca2+-independent CaM kinase activity in LV tissue from isolated rabbit hearts; details: clofilium 7.5 μmole/l; KN-93 pretreatment 0.5 μmol/l
Experimental: FIG. 4. Percent calcium-independent CaM kinase activity in isolated rabbit hearts. Maximal (i.e. Ca^2+/calmodulin-dependent) and Ca^2+-independent CaM kinase activities were assayed from left ventricular (LV) tissue homogenates as described in Example 5, Experimental Methods. All hearts were initially isolated under control conditions. A stabilization period of ≧10 min was used for each isolated heart to ensure the absence of EADs, as indicated by monophasic action potentials (MAPs) recorded by a catheter positioned over the LV epicardium. […]
Left ventricular homogenate was prepared as follows: after removal of the heart, it was placed in nominally Ca^2+ free ice-cold HEPES-buffered Tyrode's solution. […] Protein concentration was measured by the method of Bradford, using BSA as the standard.
(§1) Assay of CaM kinase activity was performed essentially as described by Waldmann et al. with a few modifications. […] Calcium/calmodulin-dependent phosphorylation of the autocamtide 3 substrate was then quantitated as described. Calcium/calmodulin-independent CaM kinase activity was quantitated as described above, but Ca^2+ was omitted from the assay solution. […]

protein kinase A (PKA) = details: cited from earlier work
CaM kinase [2] = details: cited from earlier work
[3] = biological target: T2, L-type Ca2+ current (ICa) (Oryctolagus cuniculus, UniProt P15381); experiment: Whole cell voltage clamp of L-type Ca2+ current in single ventricular myocytes; assay type: cell-based, rabbit; details: for steady state inhibition of peak ICa: 0.5 μmol/l external application, cells dialyzed with BAPTA
T2 construct: endogenous in cells; host or cells: freshly isolated New Zealand White rabbit ventricular myocytes
T2 sequence (P15381 whole entry, other chains not shown): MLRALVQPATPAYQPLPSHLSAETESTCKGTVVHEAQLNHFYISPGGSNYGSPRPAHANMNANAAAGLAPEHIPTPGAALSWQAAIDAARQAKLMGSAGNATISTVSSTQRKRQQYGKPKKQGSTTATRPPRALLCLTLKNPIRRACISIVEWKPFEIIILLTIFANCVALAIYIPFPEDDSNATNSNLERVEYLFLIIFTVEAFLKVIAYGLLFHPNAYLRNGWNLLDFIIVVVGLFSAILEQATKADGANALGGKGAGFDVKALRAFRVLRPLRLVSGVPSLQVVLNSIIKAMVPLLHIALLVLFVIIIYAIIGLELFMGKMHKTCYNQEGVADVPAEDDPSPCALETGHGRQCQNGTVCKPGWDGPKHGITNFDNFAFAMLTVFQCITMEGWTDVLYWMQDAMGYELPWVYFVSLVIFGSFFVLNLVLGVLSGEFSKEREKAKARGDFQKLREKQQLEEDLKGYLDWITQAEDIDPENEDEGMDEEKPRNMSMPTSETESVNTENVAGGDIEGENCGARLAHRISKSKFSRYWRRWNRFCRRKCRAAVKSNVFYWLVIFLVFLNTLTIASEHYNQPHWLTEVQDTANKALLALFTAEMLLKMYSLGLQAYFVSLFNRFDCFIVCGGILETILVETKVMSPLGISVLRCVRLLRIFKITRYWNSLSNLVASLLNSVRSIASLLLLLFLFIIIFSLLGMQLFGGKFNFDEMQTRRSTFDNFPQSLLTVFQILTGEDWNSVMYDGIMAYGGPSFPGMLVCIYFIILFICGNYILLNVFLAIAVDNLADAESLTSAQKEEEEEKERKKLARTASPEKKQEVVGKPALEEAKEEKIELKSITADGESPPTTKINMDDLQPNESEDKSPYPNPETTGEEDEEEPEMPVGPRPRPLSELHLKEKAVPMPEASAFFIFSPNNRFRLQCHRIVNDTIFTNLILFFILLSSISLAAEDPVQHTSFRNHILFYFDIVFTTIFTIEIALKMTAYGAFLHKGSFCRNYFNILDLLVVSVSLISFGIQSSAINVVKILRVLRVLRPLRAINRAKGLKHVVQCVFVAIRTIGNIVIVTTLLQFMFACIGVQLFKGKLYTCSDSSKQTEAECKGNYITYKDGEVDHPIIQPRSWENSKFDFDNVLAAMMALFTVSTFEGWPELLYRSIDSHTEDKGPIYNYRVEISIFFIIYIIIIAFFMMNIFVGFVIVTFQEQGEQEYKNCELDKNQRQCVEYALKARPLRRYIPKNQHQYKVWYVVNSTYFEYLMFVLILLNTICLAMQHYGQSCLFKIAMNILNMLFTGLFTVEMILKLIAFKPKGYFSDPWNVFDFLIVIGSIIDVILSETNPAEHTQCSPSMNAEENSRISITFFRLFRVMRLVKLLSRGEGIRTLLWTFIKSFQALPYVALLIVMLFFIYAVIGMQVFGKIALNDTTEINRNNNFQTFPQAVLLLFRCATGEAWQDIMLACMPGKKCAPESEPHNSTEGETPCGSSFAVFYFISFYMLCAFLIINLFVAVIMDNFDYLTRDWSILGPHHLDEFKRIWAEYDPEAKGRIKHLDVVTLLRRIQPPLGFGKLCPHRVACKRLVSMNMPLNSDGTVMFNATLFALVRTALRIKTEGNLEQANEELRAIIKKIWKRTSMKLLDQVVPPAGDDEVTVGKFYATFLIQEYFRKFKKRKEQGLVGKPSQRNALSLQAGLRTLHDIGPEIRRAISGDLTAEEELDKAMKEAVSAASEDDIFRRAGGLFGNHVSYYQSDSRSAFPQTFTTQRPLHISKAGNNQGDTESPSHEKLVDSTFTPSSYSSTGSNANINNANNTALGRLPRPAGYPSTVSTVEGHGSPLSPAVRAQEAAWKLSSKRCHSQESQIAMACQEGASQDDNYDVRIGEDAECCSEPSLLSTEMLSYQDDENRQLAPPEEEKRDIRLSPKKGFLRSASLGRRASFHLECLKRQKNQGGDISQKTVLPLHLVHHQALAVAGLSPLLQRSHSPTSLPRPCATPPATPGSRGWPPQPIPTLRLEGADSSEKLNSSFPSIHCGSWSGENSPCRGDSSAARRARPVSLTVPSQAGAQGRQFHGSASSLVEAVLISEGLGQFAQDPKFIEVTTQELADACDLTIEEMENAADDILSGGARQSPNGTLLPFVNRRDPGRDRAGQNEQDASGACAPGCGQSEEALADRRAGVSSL
T2 sequence (P13806 27-960 partner limits assumed, other chains not shown): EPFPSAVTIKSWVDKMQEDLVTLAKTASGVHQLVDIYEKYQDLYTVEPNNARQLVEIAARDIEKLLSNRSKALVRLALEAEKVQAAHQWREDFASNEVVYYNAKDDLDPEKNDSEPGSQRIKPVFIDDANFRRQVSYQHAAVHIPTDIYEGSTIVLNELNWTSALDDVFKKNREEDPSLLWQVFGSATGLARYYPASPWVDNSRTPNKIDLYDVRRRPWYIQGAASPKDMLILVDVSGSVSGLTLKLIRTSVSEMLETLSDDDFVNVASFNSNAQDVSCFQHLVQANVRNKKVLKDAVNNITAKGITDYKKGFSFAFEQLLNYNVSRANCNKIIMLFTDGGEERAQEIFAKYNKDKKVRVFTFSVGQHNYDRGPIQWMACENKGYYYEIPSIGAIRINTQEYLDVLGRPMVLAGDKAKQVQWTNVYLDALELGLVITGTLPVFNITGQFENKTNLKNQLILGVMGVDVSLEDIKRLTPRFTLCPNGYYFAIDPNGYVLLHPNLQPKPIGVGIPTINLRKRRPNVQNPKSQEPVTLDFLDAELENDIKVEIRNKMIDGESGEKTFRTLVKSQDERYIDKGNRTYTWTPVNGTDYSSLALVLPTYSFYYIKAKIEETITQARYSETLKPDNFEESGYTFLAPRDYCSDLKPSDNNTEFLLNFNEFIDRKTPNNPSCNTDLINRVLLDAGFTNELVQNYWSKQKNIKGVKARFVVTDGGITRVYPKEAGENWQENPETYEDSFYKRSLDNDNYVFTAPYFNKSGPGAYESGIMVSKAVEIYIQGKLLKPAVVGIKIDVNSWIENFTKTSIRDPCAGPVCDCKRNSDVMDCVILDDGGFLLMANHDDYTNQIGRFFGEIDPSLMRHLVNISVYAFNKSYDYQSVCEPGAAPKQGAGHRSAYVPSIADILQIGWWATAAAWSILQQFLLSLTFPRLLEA
T2 sequence (P13806 961-1106 partner limits assumed, other chains not shown): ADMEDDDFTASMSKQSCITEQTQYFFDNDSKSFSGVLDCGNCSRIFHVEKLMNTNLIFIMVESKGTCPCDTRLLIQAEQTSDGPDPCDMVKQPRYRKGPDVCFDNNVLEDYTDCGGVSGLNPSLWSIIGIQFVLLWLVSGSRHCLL

isolated rabbit hearts = experiment: Clofilium-induced early afterdepolarizations (EADs) in isolated perfused rabbit hearts; details: for left ventricular developed pressure (LVDP) following clofilium: clofilium 7.5 μmole/l
Description: FIG. 1. […] Data tracings show (from top to bottom) monophasic action potentials (MAP) and left ventricular (LV) pressure. The horizontal lines to the left of the LV pressure tracings (top to bottom) indicate 100 mm Hg and 0 mm Hg levels and 850 ms for panels A and B. All experiments with isolated hearts consisted of 3 periods. A fourth period (experimental period 4) was only added in hearts with EADs. Experimental periods are labeled 1-4 (top of page for both panels A and B). Experimental period 1 measurements represent control and follow >10 min of stabilization. […] Period 3 measurements follow addition of clofilium (7.5 μmole/l) and are taken at EAD initiation or from the longest action potential duration recorded over 30 min. Multiple EADs are seen as 2 oscillations during repolarization on the MAP tracings in experimental period 3. Secondary elevations in LV pressure coinciding with EADs are also seen in the LV pressure tracing in experimental period 3. Experimental period 4 measurements follow EAD termination by addition of nifedipine (10 μmole/l) (shown above) or Cd^2+ (200-500 μmole/l) (data not shown). The horizontal bars indicate the experimental conditions for both panels A and B. (B) Experimental design for isolated rabbit hearts treated with CaM kinase inhibitor KN-93. Arrangement of data tracings is the same as in FIG. 1A (above). Experimental periods are also the same as in FIG. 1A (above) except the active CaM kinase inhibitor KN-93 (0.5 μmole/l) was added 10 min prior to period 2 measurements. […] (C) Continuous record of EAD termination by nifedipine (10 μM) in a heart paced at a cycle length of 1500 ms. Data tracings show MAP with single EADs (top) and LV pressure (bottom). The horizontal lines to the left of the LV pressure tracings indicate 50 mm Hg and 0 mm Hg pressure levels (top to bottom). EAD termination occurs prior to the first discernible decrease (i.e. >10% below baseline) in LV pressure. The vertical arrow marks the first beat of EAD termination.
New Zealand White rabbits of either gender (2.7-3.2 kg) were treated with a heparin bolus (150 U/kg IV) and killed by pentobarbital (50 mg/kg IV) overdose. Hearts were rapidly excised and placed in ice-cold Tyrode's solution for dissection of extracardiac tissue. (Tyrode's solution was composed of (mmol/l) NaCl (130.0), NaHCO3 (20.0), glucose (5.6), KCl (3.0), CaCl2 (2.0), NaH2PO4 (1.8), MgCl24H2O(0.7).) The aorta was cannulated, and perfused retrograde with Tyrode's solution. The perfusate (200 ml) was recirculated through a warming bath and filling pressure was adjusted to 20 cm of H2O. Recirculation time was ˜1 min, based on the time to decrease in left ventricular (LV) pressure following addition of ICa blockers to the recirculating perfusate. Temperature was monitored using a thermistor probe positioned in the right ventricle (RV) and maintained at 33±1° C. by a closed loop feed back system. The perfusate was vigorously bubbled with 95% O2, 5% CO2 and pH was monitored throughout the experiments and adjusted to 7.4 with LN NaOH or HCl, as appropriate. Both atria were removed and drains were placed in the RV and LV apices. An electrocardiogram (ecg) lead was sutured to the LV apex and the proximal pulmonary artery. Epicardial pacing wires were inserted into the RV free wall. Bradycardia was produced by crushing the AV node with a forceps. Epicardial pacing maintained a minimum cycle length of 1500 ms (heart rate of 40 beats/min). Pacing output was adjusted to twice diastolic threshold. In most experiments LV pressure was continuously monitored with a solid state transducer (Camino Laboratories) placed in a saline filled latex balloon. The balloon was secured with a purse string suture around the left atrial remnant and pressure was adjusted to maximize the LV developed pressure (LVDP) keeping the LV end diastolic pressure <10 mmHg. […]

[4] = system: isolated rabbit ventricular myocytes; experiment: EAD induction in isolated rabbit ventricular myocytes in current clamp with low extracellular potassium; assay type: cell-based; details: cells dialyzed with peptide; for EADs induced (cells with EADs/cells): 1.0 mM extracellular potassium
Experimental: Action potentials were induced in isolated rabbit ventricular myocytes studied in current clamp with low (1.0 mM) extracellular potassium to favor EAD induction.
Action potential recording was performed in the following bath solution (mmol/L): NaCl 140.0, Glucose 10.0, HEPES 5.0, KCl 5.4, CaCl2 2.5, MgCl2 1.0; pH was adjusted to 7.4 with 10 N NaOH. The intracellular pipette solution for action potential recording contained (mmol/L): K aspartate 120.0, HEPES 10.0, EGTA 10.0, Na2ATP 5.0, MgCl2 4.0, CaCl2 3.0; pH was adjusted to 7.2 with 1N KOH. Unless otherwise noted, all chemicals were from Sigma.
Cells were stimulated at 0.1 Hz in whole cell configuration in current clamp mode with 0.1 to 1.0 nA pulses of depolarizing current (1.25×threshold) for 2-3 ms at room temperature (20°-23° C.). Action potentials were low pass filtered at 2 KHz and sampled at 2.5 KHz with a 12-bit analog to digital converter (Digidata 1200 B, Axon Instruments). A long action potential waveform was digitized and stored for application as a voltage command using pClamp 6.03.

isolated heart cells = experiment: Pacing-induced inward current (DAD-linked) in isolated heart cells, action potential voltage clamp; assay type: cell-based, rabbit; details: 0.5 Hz; for cells that developed inward currents: peptide 20 μmole/l dialyzed, 32° C.
Experimental: FIG. 7. CaM kinase inhibition suppresses pacing induced inward current. Isolated heart cells were paced (0.5 Hz, T=32° C.) using a prolonged action potential voltage clamp command wave form. (A) A prolonged action potential was digitized and used as a voltage clamp command waveform for current tracings below. Command membrane potential is on the ordinate and time (for panels A-C) is on the abscissa (B) Inward currents developed after completion of the command wave form in 5/6 cells dialyzed with a control peptide (SEQ ID NO: 2, 20 μmole/l) devoid of CaM kinase inhibitory activity. Cell membrane currents are referenced on the ordinate for both panels B and C.
Isolated heart cells (Experimental Methods, Example 6) were stimulated (0.5 Hz) in voltage clamp using a prolonged action potential wave form (FIG. 7A). Rapid pacing favors intracellular calcium overload. Inward currents that develop in response to rapid pacing are a marker for intracellular calcium overload and they are the basis for arrhythmogenic delayed afterdepolarizations (DADs).
Isolated cells were studied with the action potential command wave form using voltage clamp methodology (Experimental Methods, Example 6). Cells were stimulated at 0.5 Hz and 32° C. (heated stage from Warner Instruments) for up to 100 beats. Recording solutions were identical to those for action potential recording except that the calcium buffer EGTA was omitted from the intracellular solution to favor intracellular calcium overload. The presence or absence of the post-repolarization inward current was noted.

[5] = system: L-type calcium window current; experiment: L-type calcium window current with an EAD-containing action potential voltage clamp wave form; assay type: cell-based, rabbit; details: dialysis with peptide; data not shown
CaM kinase [6] = biological target: T1, CaM kinase; experiment: In vitro CaM kinase activity in left ventricular tissue homogenate; assay type: biochemical, rabbit; details: LV tissue homogenate; 0-100 μmol/l
Experimental: FIG. 5. Effects of KN-93 and KN-92 on CaM kinase activity in vitro. CaM kinase activity in left ventricular tissue homogenate was assayed as described in Example 5, Experimental Methods. […] The solid line represents a fit to the KN-93 data using the Hill equation.
Left ventricular homogenate was prepared as follows: after removal of the heart, it was placed in nominally Ca^2+ free ice-cold HEPES-buffered Tyrode's solution. One to two grams of the left ventricular free wall was cut away, coarsely minced, and suspended in 5-10 ml of cold homogenization buffer (mmol/l: 20 PIPES, 1 EDTA, 1 EGTA, 2 DTT, 10 sodium pyrophosphate, and 50-100 μg/ml leupeptin) at pH 7.0. Tissue suspension was homogenized at 4° C. using 3-10 sec bursts of a Polytron with 30 sec pauses inbetween bursts. The homogenate was then centrifuged at ˜10,000×g for 20 min at 4° C. using a JA-20 rotor. The supemate was removed and used directly in the assay. Protein concentration was measured by the method of Bradford, using BSA as the standard.
as §1

[7] = pretreatment 0.5 μmol/l, clofilium 7.5 μM

T1 sequence (O77708 2-533): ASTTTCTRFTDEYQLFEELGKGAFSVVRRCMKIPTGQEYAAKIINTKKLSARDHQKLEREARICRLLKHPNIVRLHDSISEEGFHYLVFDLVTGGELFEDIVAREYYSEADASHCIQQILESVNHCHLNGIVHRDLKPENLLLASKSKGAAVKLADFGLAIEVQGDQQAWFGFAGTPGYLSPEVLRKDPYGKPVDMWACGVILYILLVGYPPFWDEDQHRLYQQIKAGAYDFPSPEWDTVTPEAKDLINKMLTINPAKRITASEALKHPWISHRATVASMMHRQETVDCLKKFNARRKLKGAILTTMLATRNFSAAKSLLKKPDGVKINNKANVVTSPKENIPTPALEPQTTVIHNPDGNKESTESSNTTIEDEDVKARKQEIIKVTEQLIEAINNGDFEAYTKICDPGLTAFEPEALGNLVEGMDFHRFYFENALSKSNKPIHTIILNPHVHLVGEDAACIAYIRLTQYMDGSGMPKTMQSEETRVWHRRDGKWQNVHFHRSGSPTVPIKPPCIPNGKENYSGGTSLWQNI

Compound	effects on protein kinase C (PKC) (protein kinase C (PKC))	Ca2+-independent CaM kinase activity compared to control (CaM kinase [1])	effects on protein kinase A (PKA) (protein kinase A (PKA))	apparent voltage dependence of ICa activation [3]	steady state inhibition of peak ICa [3] [%]	EADs in response to clofilium (hearts with EADs/hearts) (isolated rabbit hearts; [7])	multiple EADs (hearts with multiple EADs/hearts) (isolated rabbit hearts; [7])	left ventricular developed pressure (LVDP) following clofilium (isolated rabbit hearts; pretreatment 0.5 μmol/l)	kind of EADs seen [4]	EADs induced (cells with EADs/cells) [4]	cells that developed inward currents (isolated heart cells)	effect on L-type calcium window current [5]	further results
COc1ccc(S(=O)(=O)N(CCO)c2ccccc2CN(C)CC=Cc2ccc(Cl)cc2)cc1 [KN-93, 2-[N-(2-hydroxyethyl)-N-(4-methoxy-benzenesulfonyl)]-amino-N-(4-chlorocinnamyl)-N-methylbenzylamine]	neither KN-93 nor KN-92 have appreciable effects	No significant increase	neither KN-93 nor KN-92 have appreciable effects	Neither KN-92 or KN-93 shifted	36.2±4.3	4/10	1/10	completely prevented the increase in LVDP					Ki (CaM kinase [2]; read-out: reported Ki, competitive inhibition of calmodulin binding to CaM kinase): 0.37 µM; peak steady state ICa inhibition relative to KN-92 ([3]; 1.0 μmol/l): more effective ICa inhibitor; MAP duration prolongation by clofilium (isolated rabbit hearts; pretreatment 0.5 μmol/l): without reducing MAP duration prolongation
CCCCCCC[N+](CC)(CC)CCCCc1ccc(Cl)cc1 [clofilium]		increased significantly											EAD induction by clofilium in hearts without any pretreatment (isolated rabbit hearts; clofilium 7.5 μM, no pretreatment): 8/8
KKALHRQEAVDCL [SEQ ID NO: 1]									only single EADs	4/15	0/5	an increase in the current was prevented	IC50 (protein kinase C (PKC)): ≥ 500 µM; IC50 (protein kinase A (PKA)): ≥ 500 µM
COc1ccc(S(=O)(=O)Nc2ccccc2CN(C)CC=Cc2ccc(Cl)cc2)cc1 [KN-92, 2-N-(4-methoxybenzenesulfonyl)-amino-N-(4-chlorocinnamyl)N-methylbenzylamine]	neither KN-93 nor KN-92 have appreciable effects		neither KN-93 nor KN-92 have appreciable effects	Neither KN-92 or KN-93 shifted	36.2±1.9	10/11	7/11	increased significantly					inhibition of CaM kinase activity (CaM kinase [6]): did not cause appreciable inhibition; CaM kinase inhibitory activity (CaM kinase [2]; congener used as experimental control): without CaM kinase inhibitory activity
KKALHAQERVDCL [SEQ ID NO: 2]									complex and repetitive	11/15	5/6	no significant effect	
Ryanodine													cells in which development of pacing induced inward currents was prevented (isolated heart cells; 10 μmole/l): 2/2
